Series [1] deals with methicillin resistant Staphylococcus aureus (MRSA). Put plainly: in vitro antimicrobial evaluation (modified CLSI method). The series is classed as cell-based. The settings on record: IC50 from percent growth versus test concentration. How it is done: The in vitro antimicrobial activity for the isolated glycosides is represented in FIG. 1. A modified version of CLSI (formerly NCCLS) method was used for the in vitro evaluation of test samples. Duplicate samples were transferred to 96-well microplates after diluting with 0.9% saline. The microbial cell suspensions were to give the desired target inocula after addition to the samples. Media and solvent controls were included in each assay. The IC50 was calculated by plotting percent growth versus test concentration.

For series [2], the system named is Methicillin-resistant Staphylococcus aureus. Kind of series: In vivo MRSA assay, thigh infection in neutropenic mice. More on the design: species or system Mice (CD-1). Particulars: for number of MRSA cfu per gram of muscle tissue: sacrificed after 48 hours; for reduction compared to vehicle control: 48 hours. How it is done: The in vivo antimicrobial activity for the isolated glycosides is represented in FIGS. 2A and 2B. Mice (CD-1) were purchased from Harlan Inc. and acclimatized up to 5 days before use. Food and water were available ad libitum throughout the study. They were rendered neutropenic by two injections of cyclophosphamide (100 mg/kg) given intraperitoneally, one and four days before infection. A volume of 50 uL suspension of Methicillin-resistant Staphylococcus aureus (1.5×10^6 live organisms) was injected intramuscularly (1M) into each of the two rear thighs. Each thigh was considered as an individual data point (total of 4 data points for each treatment). These mice were randomly distributed into the control or treatment groups (n=2/group).
Treatment with the test compound (1) was initiated via the intraperitoneal route 2 hrs after thigh inoculation. Control animals were concurrently administered saline (mock treatment) or vancomycin in the same volume as those receiving compound (1). All animals were sacrificed after 48 hours by CO2 inhalation. Immediately following sacrifice, thigh tissue was collected from the animals, weighed, and homogenized in 5.0 mL of saline. Thigh muscle homogenate was then processed for microbiological assay to determine the number of MRSA cfu per gram of muscle tissue.

The nature of series [3]: preliminary maximum tolerated dose experiment. The series is classed as in vivo. The settings on record: maximum of 20 mg/kg IP for two days. How it is done: The number of MRSA isolated from vancomycin treated animals was 2.2×10^7 g of tissue, a reduction of 72% compared to vehicle control. Similarly, the number of MRSA recovered after treatment with compound (1) at 3 mg/kg and 15 mg/kg were 2.6×10^7 and 1.8×10^7 respectively, which correspond to a reduction of 67% and 78% as compared to vehicle control. […] To determine the maximum tolerated dose in the preliminary experiment, a maximum of 20 mg/kg of compound (1) was giving IP for two days.

The next series concerns MRSA. The settings on record: background statement; cited from earlier work.
Setting [4] is: vancomycin control, dose not given.

Consider `C[C@@H]1O[C@@H](Oc2c(-c3ccc(O)cc3)oc3cc(O)cc(O)c3c2=O)[C@H](OC(=O)/C=C\c2ccc(O)cc2)[C@H](OC(=O)/C=C\c2ccc(O)cc2)[C@H]1O` [compound 4, kaempferol 3-O-α-L-(2″,3″-di-Z-p-coumaroyl)rhamnoside], for which the “in vitro activity (rank among the four compounds)” value in series [1] is “most potent”.
For the molecule `C[C@@H]1O[C@@H](Oc2c(-c3ccc(O)cc3)oc3cc(O)cc(O)c3c2=O)[C@H](OC(=O)/C=C/c2ccc(O)cc2)[C@H](OC(=O)/C=C/c2ccc(O)cc2)[C@H]1O` [compound 1, kaempferol 3-O-α-L-(2″,3″-di-E-p-coumaroyl)rhamnoside], the “number of MRSA cfu per gram of muscle tissue” value in series [2] (3 mg/kg intraperitoneal, 2 hrs after inoculation) is given as 2.6×10^7 cfu/g; in series [2] (15 mg/kg intraperitoneal, 2 hrs after inoculation), 1.8×10^7 cfu/g. The figures for the “reduction compared to vehicle control” value in series [2] (3 mg/kg intraperitoneal) and in series [2] (15 mg/kg intraperitoneal) were 67% and 78%, respectively. Also, the “acute toxicity / untoward effect” value in series [3] is listed as “No untoward effect”.
With `CN[C@H](CC(C)C)C(=O)N[C@H]1C(=O)N[C@@H](CC(N)=O)C(=O)N[C@H]2C(=O)N[C@H]3C(=O)N[C@H](C(=O)N[C@H](C(=O)O)c4cc(O)cc(O)c4-c4cc3ccc4O)[C@H](O)c3ccc(c(Cl)c3)Oc3cc2cc(c3O[C@@H]2O[C@H](CO)[C@@H](O)[C@H](O)[C@H]2O[C@H]2C[C@](C)(N)[C@H](O)[C@H](C)O2)Oc2ccc(cc2Cl)[C@H]1O` [vancomycin, reference compound], in series [2] (setting [4]), the “reduction compared to vehicle control” value is given as 72% and the “number of MRSA cfu per gram of muscle tissue” value was 2.2×10^7 cfu/g. In addition, the success rate in the series with MRSA is 35-57%.

Values taken from patent publication US20100273726A1, “METHICILLIN-RESISTANT STAPHYLOCOCCUS AUREUS ACTIVE METABOLITES ISOLATED FROM LAURUS NOBILIS AND COMBINATIONS THEREOF” (TRITON BIOPHARMA, priority 2009, published 2010).
